Laboratory results as given in patent publication US4088772A, “Methanodibenzocycloheptapyrroles” (E. I. Du Pont de Nemours and Company, priority 1975, dated 1978).
Structures can show the parent of a compound that is named as a salt. Where two headings read alike, the source gives them in different places.

How the values were obtained:
[1] = system: phenylquinone-induced writhing; assay: Phenylquinone writhing test (analgesia); format: in vivo, mouse (Carworth CF1 S female); settings: Mus musculus
Source text: This mouse test is predictive of analgesic response in humans. [E. Siegmund, R. Cadmus and G. Lee, Proc. Soc.
ED50 values were obtained graphically from the data.

in vivo = settings: mouse, in vivo, po
Procedure: (§1) Groups of five Carworth CF1 S female mice, 16-20 g each, were fasted 16-22 hours before use. The mice were put in opaque plastic "shoe-box" cages 15-30 min. before injection, and then treated orally with 4, 12, 36, 108 and 324 mg/kg of the compound to be tested as a 13 mg/ml solution in 1% aqueous distilled water solution of methylcellulose (Methocel®). Each dose was given in a standard volume of 0.45 ml. Observations were made at 0.5, 2 and 24 hours after dosing. ED50 values were calculated for each parameter including death (LD50). The ED50 and LD50 values are the doses at which 50% of the naimals would be expected to respond.
(§2) The mouse is placed on a stainless steel wire mesh screen (8 × 12 inches, 3 mesh per inch, 1/4 inch mesh openings) "shoe-box" lid (1 inch high) and is observed for normal activities, such as nose movements, head movements with apparent visual examination of the area, and/or walking around on the screen. Absence of or marked depression of these activities for 5 seconds constitutes loss of exploratory activity.
(§3) The mouse is picked up by the tail and placed on the screen with its head facing the observer. Bilateral eyelid closure of 50% or more two seconds after placement is considered ptosis.
(§4) The mouse is placed with its front paws on the edge of a stainless steel "shoe-box" cover, 1 inch high, covered with adhesive tape. Failure to remove both paws from the cover's edge within 5 seconds constitutes catatonia.
(§5) The observer gently strokes the abdominal musculature of the mouse with thumb and forefinger. Flaccidity (or rarely, tenseness) is recorded.
(§6) The mouse is gently swung by the tail toward a horizontal 12 gauge wire tautly stretched 25 cm above the bench. After the mouse grasps the wire with its forepaws, its posterior end is held directly below the wire. A normal mouse grasps the wire with its forepaws and immediately lifts its hind limbs to the wire. Failure to grasp the wire with the forepaws in both trials constitutes loss of the grip reflex; failure to lift the hind limbs to grasp the wire with at least one hind paw within 5 seconds constitutes loss of the lift reflex.
(§7) The mouse is placed on the bar 10-20 cm horizontally and 9 cm vertically from a Galton whistle adjusted for 13 kc (5 mm on the whistle scale) and is subjected to several short bursts of sound.
(§8) An effective tranquilizer should induce little or no tremor response. […] Tremors include fine or coarse and intermittent or continuous tremors.

female white mice = assay: animal or person; settings: Mus musculus, po, oral, mice
Procedure: as §1, §2, §3, §4, §5, §6, §7, §8

[2] = read-out: Exploratory Loss Visual ED50, Table 1
[3] = read-out: Reflexes Grip ED50, Table 1
[4] = read-out: Reflexes Lift ED50, Table 1
[5] = read-out: Reflexes Pinna ED50, Table 1
[6] = read-out: Catatonia ED50, Table 1
[7] = read-out: Muscle Tone ED50, Table 1
[8] = read-out: Catatonia ED50, Table III
[9] = read-out: Exploratory Loss Visual ED50, Table III
[10] = read-out: Muscle Tone ED50, Table III
[11] = read-out: Ptosis ED50, Table III
[12] = read-out: Reflexes Grip ED50, Table III
[13] = read-out: Reflexes Lift ED50, Table III
[14] = read-out: Reflexes Pinna ED50, Table III

| SMILES | ED50 ([1]; po, Table 1, mice) | ED50 (in vivo) | LD50 at 24 h (in vivo) | ED50 (female white mice; [2]) | ED50 (female white mice; [3]) | ED50 (female white mice; [4]) | ED50 (female white mice; [5]) | ED50 (female white mice; [6]) | ED50 (female white mice; [7]) | ED50 ([1]; Table 1, oral, mice) | ED50 (female white mice; read-out: Ptosis ED50, Table 1) | ED50 (in vivo; Tremors ED50, Table 1, mice) | ED50 ([1]; po, Table III, mice) | ED50 (female white mice; [8]) | ED50 (female white mice; [9]) | ED50 (female white mice; [10]) | ED50 (female white mice; [11]) | ED50 (female white mice; [12]) | ED50 (female white mice; [13]) | ED50 (female white mice; [14]) |
| --- | --- | --- | --- | --- | --- | --- | --- | --- | --- | --- | --- | --- | --- | --- | --- | --- | --- | --- | --- | --- |
| CCCCCCCCN1CC2c3ccccc3C3CC2(C1)c1ccccc13 (stereo not shown) [Example 16, 2-n-Octyl-2,3,8,12b-tetrahydro-1H-3a,8-methanodibenzo[3,4:6,7]cyclohepta[1,2-c]pyrrole] | 12 mg/kg | > 324 mg/kg | > 324 mg/kg | 20 mg/kg | > 324 mg/kg | 20 mg/kg | 20 mg/kg | – | – | – | – | – | – | – | – | – | – | – | – | – |
| c1ccc2c(c1)[C@@H]1C[C@@]3(CN(CC4CCCO4)C[C@H]23)c2ccccc21 (stereo partly shown) [Example 62, 2-(2-Tetrahydrofurylmethyl)-2,3,8,12b-tetrahydro-1H-3a,8-methanodibenzo[3,4:6,7]cyclohepta[1,2-c]pyrrole] | 7 mg/kg | – | > 324 mg/kg | 12 mg/kg | 200 mg/kg | 20 mg/kg | – | 20 mg/kg | 20 mg/kg | – | – | – | – | – | – | – | – | – | – | – |
| CC(C)CCN1C[C@@H]2c3ccccc3[C@@H]3C[C@@]2(C1)c1ccccc13 (relative stereo) [Example 60, 2-(3-Methylbutyl)-2,3,8,12b-tetrahydro-1H-3a, 8-methanodibenzo[3,4:6,7]cyclohepta[1,2-c]pyrrole] | – | – | > 324 mg/kg | 20 mg/kg | 200 mg/kg | 60 mg/kg | 36 mg/kg | 20 mg/kg | 20 mg/kg | 15 mg/kg | 36 mg/kg | – | – | – | – | – | – | – | – | – |
| c1ccc2c(c1)[C@@H]1C[C@@]3(CN(C4CCCC4)C[C@H]23)c2ccccc21 (relative stereo) [Example 48, 2-Cyclopentyl-2,3,8,12b-tetrahydro-1H-3a,8-methanodibenzo[3,4:6,7]cyclohepta[1,2-c]pyrrole] | – | – | > 324 mg/kg | 100 mg/kg | 200 mg/kg | 60 mg/kg | 60 mg/kg | 36 mg/kg | 100 mg/kg | 38 mg/kg | 60 mg/kg | > 324 mg/kg | – | – | – | – | – | – | – | – |
| CC(=O)c1ccc2c(c1)[C@]13C[C@H]2c2ccccc2[C@H]1CN(CC1CCCC1)C3 (relative stereo) [Example 66, 5-Acetyl-2-cyclopentylmethyl-2,3,8,12b-tetrahydro-1H3a,8-methanodibenzo[3,4:6,7]cyclohepta[1,2-c]pyrrole Hydrochloride] | – | – | > 324 mg/kg | – | – | – | – | – | – | – | – | – | 3.1 mg/kg | 12 mg/kg | 7 mg/kg | 12 mg/kg | < 4 mg/kg | 300 mg/kg | 20 mg/kg | 12 mg/kg |
| FCc1ccc2c(c1)[C@]13C[C@H]2c2ccccc2[C@H]1CN(CC1CCCC1)C3 (relative stereo) [Example 87, 5-Fluoromethyl-2-cyclopentylmethyl-2,3,8,12b-tetrahydro-1H-3a,8-methanodibenzo[3,4:6,7]cyclohepta[1,2-c]-pyrrole Hydrochloride] | – | – | > 324 mg/kg | – | – | – | – | – | – | – | – | – | 78 mg/kg | 36 mg/kg | 12 mg/kg | 36 mg/kg | 7 mg/kg | 300 mg/kg | 36 mg/kg | 36 mg/kg |
| c1ccc2c(c1)[C@@H]1C[C@@]3(CN(CC4C5CC6CC(C5)CC4C6)C[C@H]23)c2ccccc21 (relative stereo) [Example 53, 2-(2-Adamantylmethyl)-2,3,8,12b-tetrahydro-1H-3a,8-methanodibenzo[3,4:6,7]cyclohepta[1,2-c]pyrrole] | 94 mg/kg | > 524 mg/kg | > 324 mg/kg | 60 mg/kg | > 324 mg/kg | 300 mg/kg | 100 mg/kg | 36 mg/kg | 100 mg/kg | – | 300 mg/kg | – | – | – | – | – | – | – | – | – |
| CNS(=O)(=O)c1ccc2c(c1)[C@]13C[C@H]2c2ccccc2[C@H]1CN(CC1CCCC1)C3 (relative stereo) [Example 88, 2-Cyclopentylmethyl-2,3,8,12b-tetrahydro-1H-3a,8-methanodibenzo[3,4:6,7]cyclohepta[1,2-c]pyrrole-5-N-methylsulfonamide Hydrochloride] | – | – | > 324 mg/kg | – | – | – | – | – | – | – | – | – | < 130 mg/kg | 300 mg/kg | 20 mg/kg | 200 mg/kg | 36 mg/kg | > 324 mg/kg | 200 mg/kg | 100 mg/kg |
